Results taken from patent US5011828A, “Immunostimulating guanine derivatives, compositions and methods” (priority 1988, dated 1991).

Test system: murine lymphocytes (sheep red blood cells as antigen)
Assay: Antigen-specific adjuvanticity: direct anti-SRBC plaque forming cells, murine system
Format: cell-based, mouse
Conditions: for Direct Anti-SRBC PFC/Culture: Table 8, 1 × 10^-5 M
Source text: ^1 Adjuvanticities against sheep red blood cells [SRBC] measured in
direct plaqueforming cells per culture of lymphocytes from the mouse
strains shown. Details of the procedure are provided in the Materials and
Methods Section. Standard errors from the enumerated mean values are show
A large number of comparisons of adjuvanticity using human and murine lymphocytes as the source of leukocytes have been carried out using compounds of the present invention, as well as with new compounds excluded from the present invention. […] Interstudy comparisons are however useful for showing trends and large differences. Tables 5, 6 and 7, hereinafter, provide exemplary data from such studies in which only the activity at the peak concentration is shown for each compound and the results for the controls are omitted.
Lymphocyte cultures. The serum-containing culture medium water prepared to contain the following per 100 milliliters: 91.9 milliliters RPMI 1640 (Flow Laboratories, Inc., Rockville, Md.), 0.1 milliliters of 100×glutamine, 1.0 milliliter of 100×sodium pyruvate, 1 0 milliliter of 50×nonessential amino acids, 1.0 milliliter of water containing 10^4 units of penicillin G and 10^4 micrograms of streptomycin, and 5.0 milliliters of a supportive lot of fetal calf serum (FCS). These ingredients were admixed to apparent homogeneity. Spleen cell suspensions and populations enriched for splenic B cells were prepared as described in Goodman et al., J. Immunol., 121:1905 (1978).
For evaluation of the primary humoral immune response to sheep erythrocytes (SRBC), 5×10^6 to 10^7 murine spleen cells were cultured in 1.0 milliliter of 5% FCS-containing medium for 4 or 5 days in the presence and absence of immunogen. Cells were incubated in culture trays (Costar, Cambridge, Mass.) at 37° C. in a humidified atmosphere of 10% CO2 in air using tissue culture boxes (CBS Scientific, Del Mar, Calif.) that were rocked at a frequency of 7 cycles per minute. Pooled SRBC are available from the Colorado Serum Co., Denver Colo.
Assay of plaque forming cells (PFC). PFC secreting antibodies against SRBC were evaluated after 4 or 5 days of culture using a modification of the hemolytic plaque assay of Jerne and Nordin, Science, 140:405 (1963). The cells were brought up in complete medium before plaquing; they were plaqued in standard low Mr agarose (Bio-Rad Laboratories, Richmond Calif.), and were incubated in SRBC-absorbed guinea pig complement for one hour after a 1.5 hour incubation without complement.

[1] = Table 5, murine system, at peak concentration

C=CCn1c(=S)n([C@@H]2O[C@H](COC(=O)c3ccccc3)[C@H]3OC(C)(C)O[C@H]32)c2nc(NC(=O)c3ccccc3)[nH]c(=O)c21 [compound 23350, 7-(2-Propenyl)-2-N,5'-O-dibenzoyl-2',3'-O-isopropylidene-8-thioxoguanosine hemihydrate]
Peak Direct anti-SRBC PFC/Culture (Table 6, study c): 45 ± 8 PFC/Culture | adjuvanticity, in words (murine system): substantially inactive at the concentrations utilized

CCCCCCn1c(=O)n([C@@H]2O[C@H](CO)[C@@H](O)[C@H]2O)c2nc(N)[nH]c(=O)c21 [compound 23924, 7-Hexyl-8-oxoguanosine]
Direct Anti-SRBC PFC/Culture: 243 PFC/Culture

CCCCCCCCCCn1c(=O)n([C@@H]2O[C@H](CO)[C@@H](O)[C@H]2O)c2nc(N)[nH]c(=O)c21 [compound 23894, 7-Decyl-8-oxoguanosine]
Peak Direct anti-SRBC PFC/Culture [1]: 90 ± 15 PFC/Culture

C=CCn1c(=S)n(C2OC(COC(=O)c3ccccc3)C3OC(C)(C)OC32)c2nc(N)nc(OC(=O)c3ccccc3)c21 (centres unmarked) [compound 23314, 7-(2-Propenyl)-6,5'-dibenzoyl-2',3'-O-isopropylidene-8-thioxoguanosine]
Peak Concentration (Table 6, murine system): 10^-5 moles per liter | Peak Direct anti-SRBC PFC/Culture (Table 6, study b): 243 ± 19 PFC/Culture

C=CCn1c(=S)n([C@@H]2O[C@H](COC(C)=O)[C@H]3OC(C)(C)O[C@H]32)c2nc(N)[nH]c(=O)c21 [compound 23287, 5'-Acetyl-7-(2-propenyl)-2',3'-O-isopropylidene-8-thioxoguanosine]
Peak Direct anti-SRBC PFC/Culture (Table 6, first study (note 4)): 1650 ± 63 PFC/Culture | Peak Direct anti-SRBC PFC/Culture (Table 6, second study (note 4)): 1675 ± 298 PFC/Culture | adjuvanticity, in words (murine system): about twice that exhibited by 8-bromoguanosine (8BrGuo)

CCCn1c(=O)n([C@@H]2O[C@H](CO)[C@@H](O)[C@H]2O)c2nc(N)[nH]c(=O)c21 [compound 24069, 7-Propyl-8-oxoguanosine]
Direct Anti-SRBC PFC/Culture: 1306 PFC/Culture

C=CCn1c(=S)n([C@@H]2O[C@H](CO)[C@H]3OC(C)(C)O[C@H]32)c2nc(N)[nH]c(=O)c21 [compound 23083, 7-(2-Propenyl)-8-thioxo-2',3'-O-isopropylidineguanosine hemihydrate]
Peak Direct anti-SRBC PFC/Culture (Table 6, murine system, at peak concentration): 2150 ± 250 PFC/Culture | adjuvanticity, in words (murine system): activity substantially identical to that of 7a8oGuo, albeit at about one-half log higher concentration

Nc1nc2c(c(=O)[nH]1)n(Cc1ccccc1)c(=O)n2[C@@H]1O[C@H](CO)[C@@H](O)[C@H]1O [compound 24234, 7-Benzyl-8-oxoguanosine]
Peak Direct anti-SRBC PFC/Culture [1]: 2004 PFC/Culture | Average 1 Log Plaque Values (Table 9, murine, * = single study): 110,777 ± 42,823 per micromole

Nc1nc2c(nc(Br)n2[C@@H]2O[C@H](CO)[C@@H](O)[C@H]2O)c(=O)[nH]1 [8BrGuo, 8-bromoguanosine, reference compound]
Peak Direct anti-SRBC PFC/Culture [1]: 2450 ± 325 PFC/Culture | Peak Direct anti-SRBC PFC/Culture (Table 6, first study (note 4)): 1167 ± 68 PFC/Culture | Peak Direct anti-SRBC PFC/Culture (Table 6, second study (note 4)): 633 ± 96 PFC/Culture

C=CCn1c(=S)n(C2OC(COC(=O)c3ccccc3)C3OC(C)(C)OC32)c2nc(N)[nH]c(=O)c21.O (centres unmarked) [compound 23351, 7-(2-Propenyl)-5'-benzoyl-2',3'-O-isopropylideneguanosine-8-thioxoguanosinequarterhydrate]
Peak Concentration (Table 6, murine system): 10^-4 moles per liter | Peak Direct anti-SRBC PFC/Culture (Table 6, study a): 1431 ± 134 PFC/Culture | adjuvanticity, in words (murine system): A similar result was obtained
